Reference: patent US12180187B2, “1-phenyl-5-azinylpyrazolyl-3-oxyalkyl acids and their use for controlling unwanted plant growth” (BAYER AKTIENGESELLSCHAFT, priority 2019, dated 2024)

Key:
[1] = system: POLCO; test: Pre-emergence action at 320 g/ha against POLCO; assay type: in vivo, Fallopia convolvulus (Polygonum convolvulus); details: visual scoring after about 3 weeks vs untreated controls
Text: (§1) b) Seeds of monocotyledonous and dicotyledonous weed plants and crop plants are placed in plastic or organic planting pots and covered with soil. The compounds of the invention, formulated in the form of wettable powders (WP) or as emulsion concentrates (EC), are then applied onto the surface of the covering soil as aqueous suspension or emulsion with addition of 0.5% additive at a water application rate of 600 l/ha (converted). After the treatment, the pots are placed in a greenhouse and kept under good growth conditions for the trial plants. After about 3 weeks, the effect of the preparations is scored visually in comparison with untreated controls as percentages. For example, 100% activity=the plants have died, 0% activity=like control plants. Tables 13 to 26 below show the effects of selected compounds of the general formula (I) on various harmful plants and at an application rate corresponding to 320 g/ha, which were obtained by the experimental procedure mentioned above.

[2] = system: AMARE; test: Pre-emergence action at 320 g/ha against AMARE; assay type: in vivo, Amaranthus retroflexus; details: visual scoring after about 3 weeks vs untreated controls
Text: as §1

[3] = system: SETVI; test: Pre-emergence action at 320 g/ha against SETVI; assay type: in vivo, Setaria viridis; details: visual scoring after about 3 weeks vs untreated controls
Text: as §1

[4] = system: VIOTR; test: Pre-emergence action at 320 g/ha against VIOTR; assay type: in vivo, Viola tricolor; details: dosage 320 g/ha
Text: as §1

[5] = system: ALOMY; test: Pre-emergence action at 320 g/ha against ALOMY; assay type: in vivo, Alopecurus myosuroides; details: scored visually after about 3 weeks vs untreated controls (100% = plants have died)
Text: as §1

[6] = system: MATIN; test: Pre-emergence action at 320 g/ha against MATIN; assay type: in vivo, Tripleurospermum inodorum (Matricaria inodora); details: visual scoring after about 3 weeks vs untreated controls
Text: as §1

[7] = system: LOLRI; test: Pre-emergence action at 320 g/ha against LOLRI; assay type: in vivo, Lolium rigidum; details: visual scoring after about 3 weeks vs untreated controls
Text: as §1

[8] = system: DIGSA; test: Pre-emergence action at 320 g/ha against DIGSA; assay type: in vivo, Digitaria sanguinalis; details: visual scoring after about 3 weeks vs untreated controls
Text: as §1

[9] = system: VERPE; test: Pre-emergence action at 320 g/ha against VERPE; assay type: in vivo, Veronica persica; details: visual scoring after about 3 weeks vs untreated controls
Text: as §1

[10] = system: DIGSA; test: Post-emergence action against DIGSA, 1.28 kg/ha; assay type: in vivo, Digitaria sanguinalis; details: dosage 1280 g/ha, visual rating about 3 weeks after treatment vs untreated controls
Procedure: (§2) • a) Seeds of mono- and dicotyledonous weed plants are placed in plastic pots in sandy loam soil (twin sowing with one species each of mono- or dicotyledonous weed plants per pot), covered with soil and cultivated in a greenhouse under controlled growth conditions. 2 to 3 weeks after sowing, the test plants are treated at the one-leaf stage. The compounds of the invention, formulated in the form of wettable powders (WP) or as emulsion concentrates (EC), are applied to the green parts of the plants as aqueous suspension or emulsion with addition of 0.5% additive at a water application rate equivalent to 600 litres per hectare. After the test plants have been kept in the greenhouse under optimum growth conditions for about 3 weeks, the activity of the preparations is rated visually in comparison to untreated controls. For example, 100% activity=the plants have died, 0% activity=like control plants. As shown by the results, compounds of the general formula (I) of the invention, in post-emergence treatment, have very good herbicidal efficacy (90% to 100% herbicidal action) against harmful plants such as Abutilon theophrasti, Digitaria sanguinalis, Echinochloa crus-galli, Matricaria inodora, Poa annua, at an application rate of 1.28 kg of active substance per hectare.

[11] = system: POAAN; test: Pre-emergence action against POAAN, 1280 g/ha; assay type: in vivo, Poa annua; details: visual scoring after about 3 weeks vs untreated controls, 100% = plants have died, 0% = like control plants
Text: (§3) 1. Pre-Emergence Herbicidal Effect and Crop Plant Compatibility a) Seeds of mono- and dicotyledonous weed plants are placed in plastic pots in sandy loam soil (doubly sown with one species each of mono- or dicotyledonous weed plants per pot) and covered with soil. The compounds of the invention, formulated in the form of wettable powders (WP) or as emulsion concentrates (EC), are then applied onto the surface of the covering soil as aqueous suspension or emulsion with addition of 0.5% additive at a water application rate equivalent to 600 litres per hectare. After the treatment, the pots are placed in a greenhouse and kept under good growth conditions for the trial plants. After about 3 weeks, the effect of the preparations is scored visually in comparison with untreated controls as percentages. For example, 100% activity=the plants have died, 0% activity=like control plants. 1. Pre-Emergence Effectiveness Tables 1 to 12 below show the effects of selected compounds of the general formula (I) according to Tables 1 and 2 on various harmful plants and at an application rate corresponding to 1280 g/ha, which were obtained by the experimental procedure mentioned above.

[12] = system: SETVI; test: Post-emergence action against SETVI, 1.28 kg/ha; assay type: in vivo, Setaria viridis; details: dosage 1280 g/ha, visual rating about 3 weeks after treatment vs untreated controls
Procedure: as §2

[13] = system: POAAN; test: Post-emergence action against POAAN, 1.28 kg/ha; assay type: in vivo, Poa annua; details: dosage 1280 g/ha, visual rating about 3 weeks after treatment vs untreated controls
Procedure: as §2

[14] = system: ALOMY; test: Post-emergence action against ALOMY, 1.28 kg/ha; assay type: in vivo, Alopecurus myosuroides; details: dosage 1280 g/ha, visual rating about 3 weeks after treatment vs untreated controls
Procedure: as §2

[15] = system: SETVI; test: Pre-emergence action against SETVI, 1280 g/ha; assay type: in vivo, Setaria viridis; details: visual scoring after about 3 weeks vs untreated controls, 100% = plants have died, 0% = like control plants
Text: as §3

[16] = system: MATIN; test: Post-emergence action against MATIN, 1.28 kg/ha; assay type: in vivo, Tripleurospermum inodorum (Matricaria inodora); details: dosage 1280 g/ha, visual rating about 3 weeks after treatment vs untreated controls (100% = plants died)
Procedure: as §2

[17] = system: ECHCG; test: Post-emergence action against ECHCG, 1.28 kg/ha; assay type: in vivo, Echinochloa crus-galli; details: dosage 1280 g/ha, visual rating about 3 weeks after treatment vs untreated controls
Procedure: as §2

[18] = system: VERPE; test: Pre-emergence action against VERPE, 1280 g/ha; assay type: in vivo, Veronica persica; details: scored visually after about 3 weeks vs untreated controls (100% = plants have died)
Text: as §3

[19] = system: LOLRI; test: Pre-emergence action against LOLRI, 1280 g/ha; assay type: in vivo, Lolium rigidum; details: visual scoring after about 3 weeks vs untreated controls, 100% = plants have died, 0% = like control plants
Text: as §3

[20] = system: VERPE; test: Post-emergence action against VERPE, 1.28 kg/ha; assay type: in vivo, Veronica persica; details: dosage 1280 g/ha, visual rating about 3 weeks after treatment vs untreated controls (100% = plants died)
Procedure: as §2

[21] = system: STEME; test: Pre-emergence action against STEME, 1280 g/ha; assay type: in vivo, Stellaria media; details: scored visually after about 3 weeks vs untreated controls (100% = plants have died)
Text: as §3

[22] = system: MATIN; test: Pre-emergence action against MATIN, 1280 g/ha; assay type: in vivo, Tripleurospermum inodorum (Matricaria inodora); details: scored visually after about 3 weeks vs untreated controls (100% = plants have died)
Text: as §3

[23] = system: AMARE; test: Pre-emergence action against AMARE, 1280 g/ha; assay type: in vivo, Amaranthus retroflexus; details: scored visually after about 3 weeks vs untreated controls (100% = plants have died)
Text: as §3

[24] = system: DIGSA; test: Pre-emergence action against DIGSA, 1280 g/ha; assay type: in vivo, Digitaria sanguinalis; details: visual scoring after about 3 weeks vs untreated controls, 100% = plants have died, 0% = like control plants
Text: as §3

[25] = system: ABUTH; test: Post-emergence action against ABUTH, 1.28 kg/ha; assay type: in vivo, Abutilon theophrasti; details: dosage 1280 g/ha, visual rating about 3 weeks after treatment vs untreated controls (100% = plants died)
Procedure: as §2

Compound	Pre-emergence action against POLCO in % [1]	Pre-emergence action against AMARE in % [2]	Pre-emergence action against SETVI in % [3]	Pre-emergence action against VIOTR in % [4]	Pre-emergence action at 320 g/ha against ALOMY in % [5]	Pre-emergence action against MATIN in % [6]	Pre-emergence action against VERPE in % [9]	further results
O=C(O)CNC(=O)C(F)Oc1nn(-c2ccccc2F)c(-c2ccc(F)nc2)c1Br (centres unmarked) [Example X-012]	90%	100%	90%	100%	90%	90%		
COC(=O)CNC(=O)C(F)Oc1nn(-c2ccccc2F)c(-c2ccc(F)nc2)c1Br (centres unmarked) [Example X-014]		100%	90%	100%	90%	90%		Pre-emergence action against LOLRI in % [7]: 90%
COC(=O)CN(C)C(=O)COc1nn(-c2ccccc2F)c(-c2ccc(F)nc2)c1Br [Example X-030]		90%	80%	90%	90%			Pre-emergence action against DIGSA in % [8]: 100%
COC(=O)C1CCCN(C(=O)COc2nn(-c3ccccc3F)c(-c3cncc(F)c3)c2Br)C1 (centres unmarked) [Example X-034]				90%			90%	
COC(=O)C1CCN(C(=O)COc2nn(-c3ccccc3F)c(-c3cncc(F)c3)c2Br)C1 (centres unmarked) [Example X-037]	90%	100%					100%	
O=C(O)C1CCN(C(=O)COc2nn(-c3ccccc3F)c(-c3cncc(F)c3)c2Br)CC1 [Example X-038]								Post-emergence action against DIGSA [10]: 90%; Pre-emergence action against POAAN [11]: 100%; Post-emergence action against SETVI [12]: 90%; Post-emergence action against POAAN [13]: 100%; Post-emergence action against ALOMY [14]: 90%; Pre-emergence action against SETVI [15]: 100%; Post-emergence action against MATIN [16]: 100%; Post-emergence action against ECHCG [17]: 90%; Pre-emergence action against VERPE [18]: 90%; Pre-emergence action against LOLRI [19]: 90%; Post-emergence action against VERPE [20]: 100%; Pre-emergence action against STEME [21]: 90%; Pre-emergence action against MATIN [22]: 90%; Pre-emergence action against AMARE [23]: 100%; Pre-emergence action against DIGSA [24]: 90%; Post-emergence action against ABUTH [25]: 90%
